Measurements as given in the kinase profiling compilation of Christmann-Franck et al. (2016).

Experiments:
Assay in all cases: KINOMEscan competition binding
Conditions in all cases: compound 10.0 µM
[1] = target: SRPK1 (human) (UniProt Q96SB4)
[2] = target: MAP4K3 (human) (UniProt Q8IVH8)
[3] = target: NTRK2 (human) (UniProt Q16620)
[4] = target: MERTK (human) (UniProt Q12866)
[5] = target: MAP2K7 (human) (UniProt O14733)
[6] = target: SIK3 (human) (UniProt Q9Y2K2)
[7] = target: BMPR1B (human) (UniProt O00238)
[8] = system: EGFR (human), P00533 [747-751 del / S ins]
[9] = target: SLK (human) (UniProt Q9H2G2)
[10] = target: STK25 (human) (UniProt O00506)
[11] = target: NEK4 (human) (UniProt P51957)
[12] = target: DDR1 (human) (UniProt Q08345)
[13] = target: ERN1 (human) (UniProt O75460)
[14] = target: IKBKB (human) (UniProt O14920)
[15] = target: EPHA4 (human) (UniProt P54764)
[16] = target: YSK4 (human) (UniProt Q56UN5)
[17] = target: JAK1 JH2 pseudokinase (human) (UniProt P23458)
[18] = target: NEK2 (human) (UniProt P51955)
[19] = target: CDK4 CCND1 (human) (UniProt P11802+P24385)
[20] = target: KDR (human) (UniProt P35968)
[21] = target: CDKL1 (human) (UniProt Q00532)
[22] = target: DSTYK (human) (UniProt Q6XUX3)
[23] = target: MARK3 (human) (UniProt P27448)
[24] = target: MAPK13 (human) (UniProt O15264)
[25] = target: EPHA8 (human) (UniProt P29322)
[26] = target: NTRK3 (human) (UniProt Q16288)
[27] = target: MAPK12 (human) (UniProt P53778)
[28] = target: TLK2 (human) (UniProt Q86UE8)
[29] = target: MAPK7 (human) (UniProt Q13164)
[30] = target: AXL (human) (UniProt P30530)
[31] = system: FLT3 (human), P36888 [R834Q]
[32] = target: BRSK1 (human) (UniProt Q8TDC3)
[33] = target: MAP4K5 (human) (UniProt Q9Y4K4)
[34] = target: MAPK15 (human) (UniProt Q8TD08)
[35] = target: SIK2 (human) (UniProt Q9H0K1)
[36] = target: PLK1 (human) (UniProt P53350)
[37] = target: LIMK1 (human) (UniProt P53667)
[38] = target: DDR2 (human) (UniProt Q16832)
[39] = target: CASK (human) (UniProt O14936)
[40] = target: MAK (human) (UniProt P20794)

Sequence of AXL (human) (P30530 whole entry, looked up): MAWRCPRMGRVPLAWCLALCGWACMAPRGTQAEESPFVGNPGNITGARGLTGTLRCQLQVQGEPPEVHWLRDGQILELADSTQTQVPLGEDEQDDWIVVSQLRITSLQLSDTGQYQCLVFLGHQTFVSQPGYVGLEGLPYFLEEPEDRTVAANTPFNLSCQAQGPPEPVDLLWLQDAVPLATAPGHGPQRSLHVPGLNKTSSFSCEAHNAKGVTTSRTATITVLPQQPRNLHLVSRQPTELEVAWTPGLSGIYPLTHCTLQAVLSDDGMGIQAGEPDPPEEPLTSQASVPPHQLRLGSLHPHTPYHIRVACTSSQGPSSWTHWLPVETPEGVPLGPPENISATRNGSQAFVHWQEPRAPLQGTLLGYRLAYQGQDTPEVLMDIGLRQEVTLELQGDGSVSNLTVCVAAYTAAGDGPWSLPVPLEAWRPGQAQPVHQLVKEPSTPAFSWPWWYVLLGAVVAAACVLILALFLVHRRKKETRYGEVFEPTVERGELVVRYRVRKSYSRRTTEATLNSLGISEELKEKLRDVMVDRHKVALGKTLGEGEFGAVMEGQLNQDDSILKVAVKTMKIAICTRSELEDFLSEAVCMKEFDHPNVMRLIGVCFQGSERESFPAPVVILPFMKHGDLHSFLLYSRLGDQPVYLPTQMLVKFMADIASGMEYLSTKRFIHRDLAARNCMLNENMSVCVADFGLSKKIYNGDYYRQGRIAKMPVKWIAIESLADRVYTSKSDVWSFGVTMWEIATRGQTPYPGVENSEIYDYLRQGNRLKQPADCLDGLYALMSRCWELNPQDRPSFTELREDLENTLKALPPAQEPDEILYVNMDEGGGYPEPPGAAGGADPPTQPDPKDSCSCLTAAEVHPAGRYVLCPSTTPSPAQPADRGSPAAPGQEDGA
Sequence of MAPK15 (human) (Q8TD08 whole entry, looked up): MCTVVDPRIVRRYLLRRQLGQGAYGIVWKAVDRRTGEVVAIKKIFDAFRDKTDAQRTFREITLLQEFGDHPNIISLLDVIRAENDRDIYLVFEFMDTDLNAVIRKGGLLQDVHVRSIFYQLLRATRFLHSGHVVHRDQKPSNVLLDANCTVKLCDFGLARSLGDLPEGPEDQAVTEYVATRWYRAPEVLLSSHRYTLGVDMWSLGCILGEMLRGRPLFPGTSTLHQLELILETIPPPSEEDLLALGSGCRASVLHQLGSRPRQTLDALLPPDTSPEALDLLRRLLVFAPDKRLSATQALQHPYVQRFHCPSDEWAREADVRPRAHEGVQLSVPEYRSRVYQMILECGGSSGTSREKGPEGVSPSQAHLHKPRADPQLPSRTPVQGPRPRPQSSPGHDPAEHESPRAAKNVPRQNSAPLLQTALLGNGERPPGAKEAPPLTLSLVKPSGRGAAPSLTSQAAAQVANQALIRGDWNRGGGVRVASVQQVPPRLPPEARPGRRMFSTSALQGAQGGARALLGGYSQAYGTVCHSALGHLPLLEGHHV
Sequence of STK25 (human) (O00506 whole entry, looked up): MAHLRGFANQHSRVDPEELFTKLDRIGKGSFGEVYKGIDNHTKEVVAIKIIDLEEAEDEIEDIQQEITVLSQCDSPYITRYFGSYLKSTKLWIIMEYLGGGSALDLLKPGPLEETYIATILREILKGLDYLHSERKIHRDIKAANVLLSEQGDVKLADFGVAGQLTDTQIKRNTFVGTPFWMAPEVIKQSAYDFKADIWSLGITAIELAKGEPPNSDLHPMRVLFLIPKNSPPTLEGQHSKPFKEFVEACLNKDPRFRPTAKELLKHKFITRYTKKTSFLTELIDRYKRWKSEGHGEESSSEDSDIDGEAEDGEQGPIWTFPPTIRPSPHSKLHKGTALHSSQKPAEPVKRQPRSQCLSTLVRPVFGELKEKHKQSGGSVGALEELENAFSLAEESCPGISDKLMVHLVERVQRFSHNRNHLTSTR
Sequence of DSTYK (human) (Q6XUX3 whole entry, looked up): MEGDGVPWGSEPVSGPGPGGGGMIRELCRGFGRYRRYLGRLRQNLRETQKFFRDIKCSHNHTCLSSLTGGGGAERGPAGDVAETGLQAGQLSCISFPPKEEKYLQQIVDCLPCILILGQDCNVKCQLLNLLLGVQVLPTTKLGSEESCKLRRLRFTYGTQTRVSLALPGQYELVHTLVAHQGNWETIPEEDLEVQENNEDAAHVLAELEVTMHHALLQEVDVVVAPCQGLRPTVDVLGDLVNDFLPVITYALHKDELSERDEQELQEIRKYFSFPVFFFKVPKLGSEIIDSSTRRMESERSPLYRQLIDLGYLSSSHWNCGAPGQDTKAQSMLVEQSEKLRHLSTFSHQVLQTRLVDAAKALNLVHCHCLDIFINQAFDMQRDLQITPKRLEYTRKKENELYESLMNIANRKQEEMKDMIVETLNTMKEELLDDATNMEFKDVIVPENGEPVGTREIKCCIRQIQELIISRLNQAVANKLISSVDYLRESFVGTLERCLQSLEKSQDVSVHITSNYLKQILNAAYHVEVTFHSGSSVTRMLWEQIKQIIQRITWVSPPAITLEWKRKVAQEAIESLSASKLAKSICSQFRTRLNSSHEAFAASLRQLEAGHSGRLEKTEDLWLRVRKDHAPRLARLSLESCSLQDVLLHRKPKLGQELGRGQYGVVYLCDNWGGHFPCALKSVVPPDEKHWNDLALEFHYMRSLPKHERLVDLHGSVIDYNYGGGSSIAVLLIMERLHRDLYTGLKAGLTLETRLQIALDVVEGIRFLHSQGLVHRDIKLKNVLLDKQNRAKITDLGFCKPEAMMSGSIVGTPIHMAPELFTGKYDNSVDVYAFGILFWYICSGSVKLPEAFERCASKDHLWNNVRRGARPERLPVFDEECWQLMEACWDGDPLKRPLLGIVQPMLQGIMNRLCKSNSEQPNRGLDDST
Sequence of MAPK7 (human) (Q13164 whole entry, looked up): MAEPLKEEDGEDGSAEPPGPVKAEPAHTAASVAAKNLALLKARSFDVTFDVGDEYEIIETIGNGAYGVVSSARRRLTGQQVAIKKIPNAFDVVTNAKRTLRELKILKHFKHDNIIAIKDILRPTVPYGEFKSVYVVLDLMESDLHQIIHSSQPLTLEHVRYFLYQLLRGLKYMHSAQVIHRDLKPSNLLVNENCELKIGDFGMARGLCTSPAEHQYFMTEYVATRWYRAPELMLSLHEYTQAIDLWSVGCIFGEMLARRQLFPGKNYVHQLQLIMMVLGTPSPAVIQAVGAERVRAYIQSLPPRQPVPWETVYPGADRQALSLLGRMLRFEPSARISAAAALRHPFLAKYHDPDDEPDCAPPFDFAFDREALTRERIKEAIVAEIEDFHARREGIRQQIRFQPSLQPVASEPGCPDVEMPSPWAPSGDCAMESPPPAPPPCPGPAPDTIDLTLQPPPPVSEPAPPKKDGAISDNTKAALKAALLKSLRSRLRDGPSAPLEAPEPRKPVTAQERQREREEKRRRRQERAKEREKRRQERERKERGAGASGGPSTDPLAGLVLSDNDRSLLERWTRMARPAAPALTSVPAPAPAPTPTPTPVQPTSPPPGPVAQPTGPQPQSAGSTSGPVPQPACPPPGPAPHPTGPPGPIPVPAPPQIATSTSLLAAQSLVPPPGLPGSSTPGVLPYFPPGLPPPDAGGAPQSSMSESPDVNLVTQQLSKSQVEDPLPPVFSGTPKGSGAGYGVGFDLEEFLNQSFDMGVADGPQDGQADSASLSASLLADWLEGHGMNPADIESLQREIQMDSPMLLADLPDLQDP
Sequence of YSK4 (human) (Q56UN5 whole entry, looked up): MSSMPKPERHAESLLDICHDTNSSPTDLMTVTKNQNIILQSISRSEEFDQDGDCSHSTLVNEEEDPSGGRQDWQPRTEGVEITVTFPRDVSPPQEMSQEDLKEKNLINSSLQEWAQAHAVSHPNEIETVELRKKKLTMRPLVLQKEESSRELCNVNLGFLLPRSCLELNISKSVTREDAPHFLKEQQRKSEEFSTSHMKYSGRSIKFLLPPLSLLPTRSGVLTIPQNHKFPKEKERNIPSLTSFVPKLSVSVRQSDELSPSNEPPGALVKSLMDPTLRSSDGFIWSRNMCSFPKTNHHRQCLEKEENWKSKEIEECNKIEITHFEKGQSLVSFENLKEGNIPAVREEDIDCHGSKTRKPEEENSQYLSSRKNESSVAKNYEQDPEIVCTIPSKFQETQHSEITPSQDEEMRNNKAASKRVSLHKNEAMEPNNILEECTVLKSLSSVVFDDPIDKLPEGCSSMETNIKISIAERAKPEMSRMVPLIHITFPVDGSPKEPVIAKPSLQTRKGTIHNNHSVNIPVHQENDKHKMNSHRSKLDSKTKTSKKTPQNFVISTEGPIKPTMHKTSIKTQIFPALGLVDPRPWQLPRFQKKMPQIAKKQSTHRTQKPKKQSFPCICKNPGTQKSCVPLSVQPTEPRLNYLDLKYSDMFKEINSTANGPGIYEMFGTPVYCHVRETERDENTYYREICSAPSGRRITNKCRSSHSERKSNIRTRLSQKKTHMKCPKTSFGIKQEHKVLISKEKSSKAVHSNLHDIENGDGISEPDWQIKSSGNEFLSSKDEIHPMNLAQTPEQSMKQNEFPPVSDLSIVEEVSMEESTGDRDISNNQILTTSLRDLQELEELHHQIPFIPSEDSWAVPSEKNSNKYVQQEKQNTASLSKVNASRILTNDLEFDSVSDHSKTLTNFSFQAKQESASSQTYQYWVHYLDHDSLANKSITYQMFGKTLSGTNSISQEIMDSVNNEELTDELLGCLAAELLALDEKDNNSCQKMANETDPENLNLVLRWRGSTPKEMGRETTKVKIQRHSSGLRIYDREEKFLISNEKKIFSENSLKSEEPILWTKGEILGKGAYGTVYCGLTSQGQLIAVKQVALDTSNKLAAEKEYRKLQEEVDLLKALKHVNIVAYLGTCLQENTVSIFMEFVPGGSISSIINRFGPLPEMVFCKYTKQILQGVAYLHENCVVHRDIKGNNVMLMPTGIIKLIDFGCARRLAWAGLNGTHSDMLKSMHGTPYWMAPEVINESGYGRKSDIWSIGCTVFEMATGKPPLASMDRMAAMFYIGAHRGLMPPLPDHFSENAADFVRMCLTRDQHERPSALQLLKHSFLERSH

Row | Structure (SMILES) | kinase still bound, per cent of control [1] [%] | kinase still bound, per cent of control [2] [%] | kinase still bound, per cent of control [3] [%] | kinase still bound, per cent of control [4] [%] | kinase still bound, per cent of control [5] [%] | kinase still bound, per cent of control [6] [%] | kinase still bound, per cent of control [7] [%] | kinase still bound, per cent of control [8] [%] | kinase still bound, per cent of control [9] [%] | kinase still bound, per cent of control [10] [%] | kinase still bound, per cent of control [11] [%] | kinase still bound, per cent of control [12] [%] | kinase still bound, per cent of control [13] [%] | kinase still bound, per cent of control [14] [%] | kinase still bound, per cent of control [15] [%] | kinase still bound, per cent of control [16] [%] | kinase still bound, per cent of control [17] [%] | kinase still bound, per cent of control [18] [%] | kinase still bound, per cent of control [19] [%] | kinase still bound, per cent of control [20] [%] | also measured
1 | CCN1CCN(C(=O)Cc2ccc(Nc3ncc(F)c(Nc4ccc(C(=O)Nc5ccccc5Cl)cc4)n3)cc2)CC1 | 1.9 | 42 | 27 | 2 | 100 | 68 | 22 | 47 | 0.2 | 35 | 63 | 22 | 91 | 27 | 83 | 7.2 | 3 | 87 | 34 | 16 | kinase still bound, per cent of control [21]: 41%; kinase still bound, per cent of control [22]: 71%; kinase still bound, per cent of control [23]: 80%; kinase still bound, per cent of control [24]: 100%; kinase still bound, per cent of control [25]: 63%; kinase still bound, per cent of control [26]: 78%; kinase still bound, per cent of control [27]: 100%; kinase still bound, per cent of control [28]: 33%; kinase still bound, per cent of control [29]: 100%; kinase still bound, per cent of control [30]: 2.1%; kinase still bound, per cent of control [31]: 36%; kinase still bound, per cent of control [32]: 88%; kinase still bound, per cent of control [33]: 64%; kinase still bound, per cent of control [34]: 54%; kinase still bound, per cent of control [35]: 20%; kinase still bound, per cent of control [36]: 94%; kinase still bound, per cent of control [37]: 9.8%; kinase still bound, per cent of control [38]: 100%; kinase still bound, per cent of control [39]: 82%; kinase still bound, per cent of control [40]: 100%
2 | N#CCNC(=O)c1ccc(-c2ccnc(Nc3ccc(N4CCOCC4)cc3)n2)cc1 | 1.6 | 57 | 67 | 100 | 100 | 100 | 85 | 70 | 100 | 71 | 100 | 100 | 100 | 0.15 | 100 | 1.7 | 100 | 77 | 13 | 99 | kinase still bound, per cent of control [21]: 60%; kinase still bound, per cent of control [22]: 38%; kinase still bound, per cent of control [23]: 16%; kinase still bound, per cent of control [24]: 100%; kinase still bound, per cent of control [25]: 83%; kinase still bound, per cent of control [26]: 63%; kinase still bound, per cent of control [27]: 100%; kinase still bound, per cent of control [28]: 88%; kinase still bound, per cent of control [29]: 48%; kinase still bound, per cent of control [30]: 57%; kinase still bound, per cent of control [31]: 100%; kinase still bound, per cent of control [32]: 100%; kinase still bound, per cent of control [33]: 100%; kinase still bound, per cent of control [34]: 0.25%; kinase still bound, per cent of control [35]: 14%; kinase still bound, per cent of control [36]: 100%; kinase still bound, per cent of control [37]: 100%; kinase still bound, per cent of control [38]: 100%; kinase still bound, per cent of control [39]: 100%; kinase still bound, per cent of control [40]: 100%
3 | O=C(Nc1cccc(Nc2ncc(Br)c(NCCc3cnc[nH]3)n2)c1)N1CCCC1 | 4.2 | 4.6 | 0.45 | 0.5 | 60 | 7 | 0 | 67 | 0.35 | 30 | 9.4 | 100 | 34 | 8.4 | 100 | 0 | 0.2 | 6.2 | 0.25 | 1.8 | kinase still bound, per cent of control [21]: 1.8%; kinase still bound, per cent of control [22]: 36%; kinase still bound, per cent of control [23]: 0.3%; kinase still bound, per cent of control [24]: 11%; kinase still bound, per cent of control [25]: 94%; kinase still bound, per cent of control [26]: 2.6%; kinase still bound, per cent of control [27]: 65%; kinase still bound, per cent of control [28]: 56%; kinase still bound, per cent of control [29]: 62%; kinase still bound, per cent of control [30]: 1.2%; kinase still bound, per cent of control [31]: 7%; kinase still bound, per cent of control [32]: 7.6%; kinase still bound, per cent of control [33]: 9.6%; kinase still bound, per cent of control [34]: 1.8%; kinase still bound, per cent of control [35]: 8%; kinase still bound, per cent of control [36]: 41%; kinase still bound, per cent of control [37]: 38%; kinase still bound, per cent of control [38]: 65%; kinase still bound, per cent of control [39]: 67%; kinase still bound, per cent of control [40]: 100%
